TGI and GI50 data for eight compounds are collected here from PubChem BioAssay (NCI).

Some test systems named below: 786-0 renal; A498 renal; CCRF-CEM leukemia; DU-145 prostate; HCT-15 colon; HOP-62 NSCLC; HOP-92 NSCLC; HS 578T breast; K-562 leukemia; MOLT-4 leukemia; PC-3 prostate; RXF 393 renal; SF-268 CNS; SF-539 CNS; SK-OV-3 ovarian; T-47D breast; TK-10 renal; UACC-257 melanoma; NCI-H226 lung.
Common to all, as to test: growth of human tumour cells (NCI), 48 h

Where “and” joins values, the source holds several entries; their conditions need not be identical. Equal entries are not always repeated.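 Grown in 96-well plates, cells were treated for 48 hours with each compound at five concentrations. Insufficient inhibition: endpoint recorded as highest concentration tested. Here, GI50 denotes the concentration required for 50% inhibition of growth. The concentration for full growth arrest is given as TGI.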 Some results are limits rather than exact numbers.

With `CC(=O)OC1OC(C2c3cccc(O)c3C(=O)c3c(O)cc(CO)cc32)C(O)C(O)C1O` (configuration not stated), the TGI in the test on 786-0 renal was 17 µM and 16.2 µM; with A498 renal it was 26.4 µM; in the test on CCRF-CEM leukemia it was 21.5 µM and 17.9 µM; with DU-145 prostate it was > 100 µM and 84.1 µM; in the test on HCT-15 colon, 9.33 µM and 11.2 µM; in the test on HOP-62 NSCLC, 11.6 µM and 18.5 µM. Besides, the TGI is 9.38 µM in the test with HOP-92 NSCLC; 7.38 µM and 7.12 µM in the test on HS 578T breast; > 100 µM in the test on K-562 leukemia; 52.2 µM and 66.5 µM with MOLT-4 leukemia; 10.5 µM and 12.4 µM in the test on PC-3 prostate; 29.8 µM and 55.5 µM in the test with RXF 393 renal. Moreover, the TGI in the test on SF-268 CNS is 21.8 µM and 33.6 µM; in the test on SF-539 CNS it was 4.22 µM and 4.73 µM; with SK-OV-3 ovarian it was 18.3 µM and 90.8 µM; in the test on T-47D breast, 27.3 µM and 15.6 µM; in the test on TK-10 renal, 19.4 µM and 22.4 µM; in the test with UACC-257 melanoma it was 32.8 µM and 33.7 µM. In the test on HOP-62 NSCLC, the GI50 is 2.38 µM and 5.03 µM.

Regarding `CCC1=NC(N/N=C/c2ccco2)=N/C1=C\c1ccco1`, the TGI with 786-0 renal, with A498 renal, in the test with CCRF-CEM leukemia, with DU-145 prostate, in the test on HCT-15 colon and with HOP-62 NSCLC was > 100 µM in each case. Also, the TGI in the test with HOP-92 NSCLC, in the test on HS 578T breast, in the test with K-562 leukemia, in the test on MOLT-4 leukemia, with NCI-H226 lung and in the test on PC-3 prostate was > 100 µM throughout. Further, the TGI in the test on RXF 393 renal, in the test with SF-268 CNS, with SK-OV-3 ovarian, with T-47D breast, in the test with TK-10 renal and in the test on UACC-257 melanoma was > 100 µM in each case.

`N#CCc1nc(-c2cc3ccc(O)cc3oc2=O)cs1`: the TGI with 786-0 renal, in the test on CCRF-CEM leukemia, with DU-145 prostate, in the test on HCT-15 colon, with HOP-62 NSCLC and in the test with HOP-92 NSCLC was > 100 µM throughout. For the same compound, the TGI with HS 578T breast, in the test on K-562 leukemia, with MOLT-4 leukemia, in the test with NCI-H226 lung, in the test with PC-3 prostate and in the test with RXF 393 renal was > 100 µM each time. Also, the TGI in the test with SF-268 CNS, with SF-539 CNS, in the test with SK-OV-3 ovarian, in the test on T-47D breast, in the test with TK-10 renal and with UACC-257 melanoma was > 100 µM throughout.

For the compound `O=C(O)c1ccc(C2=Nc3cccc4cccc(c34)N2)cc1`, the TGI with 786-0 renal, in the test on CCRF-CEM leukemia, in the test on DU-145 prostate, with HCT-15 colon, in the test with HOP-62 NSCLC and in the test on HOP-92 NSCLC was > 100 µM throughout. In addition, the TGI in the test on HS 578T breast, with K-562 leukemia, in the test with MOLT-4 leukemia, with NCI-H226 lung, in the test on PC-3 prostate and with RXF 393 renal was > 100 µM throughout. The TGI in the test on SF-268 CNS, in the test with SF-539 CNS, in the test on SK-OV-3 ovarian, with T-47D breast, in the test with TK-10 renal and in the test with UACC-257 melanoma was > 100 µM in each case.

Take `COc1ccc(-n2nnc3c(C#N)c(C)c(-c4ccccc4)n3c2=O)cc1`: the TGI was 8.24 µM in the test with 786-0 renal; > 100 µM in the test on A498 renal; 8 µM with DU-145 prostate; > 100 µM in the test with HCT-15 colon; > 100 µM in the test on HOP-62 NSCLC; > 100 µM in the test with HOP-92 NSCLC. Besides, the TGI in the test on HS 578T breast was > 100 µM; in the test with MOLT-4 leukemia it was > 58.1 µM; with NCI-H226 lung it was > 100 µM; in the test on PC-3 prostate, > 100 µM; in the test on RXF 393 renal, > 21.4 µM; in the test with SF-268 CNS, > 100 µM. In addition, the TGI in the test with SF-539 CNS was > 20 µM; in the test with SK-OV-3 ovarian it was > 22.4 µM; with T-47D breast, > 100 µM; with TK-10 renal it was > 100 µM; in the test with UACC-257 melanoma, > 100 µM.

With `O=c1[nH]nc(Cc2ccc(Cl)cc2)n1CCO`, the TGI with 786-0 renal, with A498 renal, in the test with DU-145 prostate, with HCT-15 colon, in the test with HOP-92 NSCLC and in the test with HS 578T breast was > 100 µM each time. Moreover, the TGI in the test on K-562 leukemia, in the test with MOLT-4 leukemia, in the test on NCI-H226 lung, in the test with PC-3 prostate, in the test on SF-268 CNS and in the test on SF-539 CNS was > 100 µM in each case. The TGI with SK-OV-3 ovarian, in the test with T-47D breast, in the test on TK-10 renal and with UACC-257 melanoma was > 100 µM in each case.

Consider `CCOC(=O)c1nc2ccc(C(F)(F)F)cc2nc1NCc1ccc(F)cc1`, for which the TGI in the test with 786-0 renal is > 100 µM; with CCRF-CEM leukemia, > 100 µM; in the test on DU-145 prostate, > 100 µM; in the test on HCT-15 colon, > 100 µM; in the test with HOP-62 NSCLC it was > 100 µM; in the test with HOP-92 NSCLC, 29.2 µM. Further, the TGI was 86.5 µM with HS 578T breast; > 100 µM in the test on K-562 leukemia; > 100 µM in the test on MOLT-4 leukemia; > 100 µM with NCI-H226 lung; > 100 µM with PC-3 prostate; > 100 µM with RXF 393 renal. In addition, the TGI is 53.9 µM in the test with SF-268 CNS; > 100 µM in the test with SF-539 CNS; > 100 µM in the test with SK-OV-3 ovarian; 84.8 µM in the test on T-47D breast; > 100 µM in the test with TK-10 renal; > 100 µM in the test with UACC-257 melanoma.

In the case of `Cc1[nH]c2[nH]c(=S)nc(NC(N)=S)c2c1Cc1ccccc1`, the TGI with 786-0 renal is 76.1 µM; with A498 renal, > 100 µM; in the test on CCRF-CEM leukemia, > 100 µM; in the test on DU-145 prostate it was > 100 µM; in the test on HCT-15 colon, > 100 µM; in the test on HOP-62 NSCLC, > 100 µM. Further, the TGI is > 100 µM in the test with HOP-92 NSCLC; 60.6 µM in the test on HS 578T breast; > 100 µM in the test with K-562 leukemia; > 100 µM with MOLT-4 leukemia; > 100 µM in the test with NCI-H226 lung; > 100 µM in the test with PC-3 prostate. Moreover, the TGI with SF-268 CNS is > 100 µM; in the test on SF-539 CNS, > 100 µM; with SK-OV-3 ovarian it was > 100 µM; in the test with T-47D breast, 89.4 µM; in the test with TK-10 renal, > 100 µM; in the test on UACC-257 melanoma, > 100 µM.
